Reference: ChEMBL document CHEMBL3137667, “[Drug-induced liver injury; fourteenth updated edition of the bibliographic database of liver injuries and related drugs]” (Gastroenterol Clin Biol, 2004)

What was measured:
[1] = Highest frequency of moderate liver toxicity observed during clinical trials, expressed as a percentage. [column '% BIOL' in source]; conditions: human
[2] = Highest frequency of acute liver toxicity observed during clinical trials, expressed as a percentage. [column '% AIGUE' in source]; conditions: human
[3] = human, serum
[4] = human, serum; remark: listed apart in the source
[5] = human
[6] = human; remark: listed apart in the source
[7] = human; remark: listed apart in the source
[8] = human, serum, 4383 h
[9] = human; remark: listed apart in the source
[10] = human; remark: listed apart in the source
[11] = human; remark: listed apart in the source
[12] = human; remark: listed apart in the source
[13] = human; remark: listed apart in the source
[14] = human; remark: listed apart in the source
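Wherever Hepatotoxicity (association with vascular disease) is given: count of indexed literature references reporting vascular liver injury in humans, e.g. peliosis hepatitis, hepatic veno-occlusive disease or Budd-Chiari syndrome.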
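Wherever Hepatotoxicity (benign tumour) is given: value is a count of indexed literature references citing a benign tumour confirmed by histopathology.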
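Wherever Hepatotoxicity (choleostasis) is given: human cholestatic liver injury, shown by histopathology or by peak ALT or AST elevation over alkaline phosphatase ratio below 2, value counts indexed literature reports.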
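Wherever Hepatotoxicity (chronic liver disease) is given: chronic liver injury confirmed by histopathology or persistently raised serum aminotransferase activity beyond 6 months, value given as the count of indexed literature references.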
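Wherever Hepatotoxicity (cirrhosis) is given: value is a count of indexed literature references reporting cirrhosis confirmed by histopathology.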
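Wherever Hepatotoxicity (cytolytic) is given: human cytolytic liver injury, shown by histopathology or by a ratio above 5 of peak ALT or AST elevation to alkaline phosphatase elevation, value counts indexed references.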
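Wherever Hepatotoxicity (granulomatous hepatitis) is given: value is a count of indexed literature references reporting granulomatous liver disease confirmed by histopathology.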
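Wherever Hepatotoxicity (malignant tumour) is given: malignant tumour confirmed by histopathology, value gives the count of indexed literature references reporting it.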
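Wherever Hepatotoxicity (severe hepatitis) is given: human clinical data: severe hepatitis, meaning potentially life-threatening liver failure or clinically observed cases, the value counts how many indexed literature references report it.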
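Wherever Hepatotoxicity (steatosis) is given: steatosis confirmed by histopathology, value is the count of indexed references.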

SMILES | Hepatotoxicity (moderate) [1] [%] | Hepatotoxicity (acute) [2] [%] | Hepatotoxicity (moderate) [3] | Hepatotoxicity (acute) [4] | Hepatotoxicity (cytolytic) [5] | Hepatotoxicity (choleostasis) [6] | Hepatotoxicity (severe hepatitis) [7] | Hepatotoxicity (chronic liver disease) [8] | Hepatotoxicity (cirrhosis) [9] | Hepatotoxicity (granulomatous hepatitis) [10] | Hepatotoxicity (association with vascular disease) [11] | Hepatotoxicity (steatosis) [12] | Hepatotoxicity (malignant tumour) [13] | Hepatotoxicity (benign tumour) [14] | Hepatotoxicity (moderate) ([1]; Liver) [%] | Hepatotoxicity (acute) ([2]; Liver) [%] | Hepatotoxicity (cytolytic) ([5]; Liver) | Hepatotoxicity (choleostasis) ([6]; Liver) | Hepatotoxicity (severe hepatitis) ([7]; Liver) | Hepatotoxicity (granulomatous hepatitis) ([10]; Liver)
O=C1NC(=S)NC(=O)C1C(=O)Nc1ccccc1 [MERBARONE] | 28.6 | 3.8 | 3 | 1 | 0 | 0 | 0 | 0 | 0 | 0 | 0 | 0 | 0 | 0 |  |  |  |  |  | 
C[C@@H](O)[C@H]1C(=O)N2C(C(=O)O)=C(S[C@@H]3CN[C@H](C(=O)N(C)C)C3)[C@H](C)[C@H]12 [MEROPENEM] | 48.1 | 5.3 | 92 | 1 | 0 | 0 | 0 | 0 | 0 | 0 | 0 | 0 | 0 | 0 |  |  |  |  |  | 
Cc1cc(C)cc(OCC2CNC(=O)O2)c1 (centres undefined) [METAXALONE] | 0 | 0 | 0 | 2 | 0 | 0 | 0 | 0 | 0 | 0 | 0 | 0 | 0 | 0 |  |  |  |  |  | 
CSCC[C@H](N)C(=O)O [METHIONINE] |  |  | 1 | 2 |  |  |  | 0 | 0 |  | 0 | 0 | 0 | 0 | 0 | 0 | 1 | 0 | 0 | 0
CN1C(CCl)Nc2cc(Cl)c(S(N)(=O)=O)cc2S1(=O)=O (centres undefined) [METHYCLOTHIAZIDE] | 0 | 0 | 1 | 0 | 0 | 0 | 0 | 0 | 0 | 0 | 0 | 0 | 0 | 0 |  |  |  |  |  | 
Clc1ccc(COC(Cn2ccnc2)c2ccc(Cl)cc2Cl)c(Cl)c1 (centres undefined) [MICONAZOLE] | 0 | 0 | 2 | 0 | 0 | 0 | 0 | 0 | 0 | 0 | 0 | 0 | 0 | 0 |  |  |  |  |  | 
CC(C)/N=C/Nc1ccc(-c2c[nH]cn2)cc1 [MIFENTIDINE] | 3.3 | 0 | 1 | 0 | 0 | 0 | 0 | 0 | 0 | 0 | 0 | 0 | 0 | 0 |  |  |  |  |  | 
Cc1[nH]c(=O)c(C#N)cc1-c1ccncc1 [MILRINONE] | 2 | 0 | 2 | 0 | 0 | 0 | 0 | 0 | 0 | 0 | 0 | 0 | 0 | 0 |  |  |  |  |  | 
CCCCC(C)(O)C/C=C/[C@H]1[C@H](O)CC(=O)[C@@H]1CCCCCCC(=O)OC (some centres undefined) [MISOPROSTOL] | 16.7 | 0 | 6 | 0 | 0 | 0 | 0 | 0 | 0 | 0 | 0 | 0 | 0 | 0 |  |  |  |  |  | 
CC(/C=N/NC(=N)N)=N\NC(=N)N [MITOGUAZONE] | 18.2 | 0 | 1 | 0 | 0 | 0 | 0 | 0 | 0 | 0 | 0 | 0 | 0 | 0 |  |  |  |  |  | 
CCNNC(=O)[C@@H]1[C@H](c2cc(OC)c(OC)c(OC)c2)c2cc3c(cc2[C@H](O)[C@H]1CO)OCO3 [MITOPODOZIDE] | 1.3 | 0 | 1 | 0 | 0 | 0 | 0 | 0 | 0 | 0 | 0 | 0 | 0 | 0 |  |  |  |  |  | 
COc1ccc(-c2noc(CC(=O)O)c2-c2ccc(OC)cc2)cc1 [MOFEZOLAC] | 0 | 0 | 1 | 0 | 0 | 0 | 0 | 0 | 0 | 0 | 0 | 0 | 0 | 0 |  |  |  |  |  | 
O=C(CCCN1CCN(c2ccc(F)cc2)CC1)NC1c2ccccc2CSc2ccccc21 (centres undefined) [MONATEPIL] | 4.5 | 0 | 1 | 0 | 0 | 0 | 0 | 0 | 0 | 0 | 0 | 0 | 0 | 0 |  |  |  |  |  | 
CO[C@@]1(NC(=O)C(C(=O)[O-])c2ccc(O)cc2)C(=O)N2C(C(=O)[O-])=C(CSc3nnnn3C)CO[C@@H]21.[Na+].[Na+] (some centres undefined) [MOXALACTAM DISODIUM] | 36.5 | 3.3 | 13 | 1 | 0 | 1 | 0 | 0 | 0 | 0 | 0 | 0 | 0 | 0 |  |  |  |  |  | 
COc1ccc2cc(CCC(C)=O)ccc2c1 [NABUMETONE] | 4.5 | 0 | 8 | 1 | 1 | 0 | 0 | 0 | 0 | 0 | 0 | 0 | 0 | 0 |  |  |  |  |  | 
C/N=C(/Cc1ccc2ccccc2c1)NC [NAPACTADINE] | 0 | 0 | 1 | 0 | 0 | 0 | 0 | 0 | 0 | 0 | 0 | 0 | 0 | 0 |  |  |  |  |  | 
